Results taken from article PMC8540140, “The Real Cytotoxic Effect of Artemisinins on Colon Cancer Cells in a Physiological Cell Culture Setting. How Composition of the Culture Medium Biases Experimental Findings” (Pharmaceuticals, 2021).
Where two headings read alike, the source gives them in different places.

Legend:
[1] = tested on: SW480 human primary colon cancer cell line; assay: MTT cytotoxicity assay, SW480; format: cell-based; conditions: 72 h, LA 20 or 40 µM, TRFi 50 µM where named in the label
Description: (§1) The human cell lines SW480 (primary colon cancer), SW620 (lymph node metastatic from the same patient as SW480), and HaCaT (immortalized keratinocyte) were obtained from the American Type Culture Collection (ATCC, Rockville, USA). SW480 and SW620 cells were grown in MEM (minimal essential medium, ThermoSci, USA), and HaCaT in DMEM high glucose (Dulbecco’s Modified Eagle’s Medium, Biowest SAS, France) supplemented with 10% FBS (fetal bovine serum), HEPES (20 mM), and antibiotics (100 U/mL of penicillin and 100 μg/mL of streptomycin). The cells were maintained in a humidified incubator at 37 °C/5% CO2 until 80–90% confluence was reached.
(§2) Next, the cells were harvested by treatment with 0.25% trypsin-0.02% EDTA (Gibco Life Technologies, Carslabad, CA USA) and seeded in 96-well plates (1 × 10^4 cells per well) for MTT assay or in 6-well plates (4 × 10^4 cells per well) for Trypan blue exclusion method. […] The cells treated only with 20 µM LA were used as a control. All experimental settings were repeated with holo-transferrin (TRFi) at pharmacological concentration (50 µM). All cells were cultured for a period of 72 h.
(§3) The cytotoxic effects of tested compounds were assessed by MTT (3-(4,5-dimethylthiazol-2-yl)-2,5-diphenyltetrazolium bromide) assay. This assay is based on the metabolic reduction of soluble MTT into an insoluble colored formazan product by mitochondrial dehydrogenase activity of viable cells. After 72 h incubation in the presence of experimental compounds the cells were incubated at 37 °C with MTT solution (0.5 mg/mL) for 4h. Obtained purple formazan product was dissolved in DMSO with isopropanol (1:1) and the optical density was measured at 570 nm. Each experiment was performed in triplicate. The cytotoxicity of compounds was presented as a percent of MTT reduced in treated cells vs. control cells. The relative MTT level (%) was calculated according formula [A]/[B] × 100. [A] express the absorbance of the test sample whereas [B] the absorbance of the control sample (untreated cells. IC50 values were calculated using CompuSyn version 1.0.

[2] = tested on: SW620 human metastatic colon cancer cell line; assay: MTT cytotoxicity assay, SW620; format: cell-based; conditions: SW-620, 72 h, LA 20 or 40 µM, TRFi 50 µM where named in the label
Description: The cytotoxic effects of tested compounds were assessed by MTT (3-(4,5-dimethylthiazol-2-yl)-2,5-diphenyltetrazolium bromide) assay. […] Obtained purple formazan product was dissolved in DMSO with isopropanol (1:1) and the optical density was measured at 570 nm. […] The relative MTT level (%) was calculated according formula [A]/[B] × 100. [A] express the absorbance of the test sample whereas [B] the absorbance of the control sample (untreated cells. IC50 values were calculated using CompuSyn version 1.0.

[3] = tested on: HaCaT human immortal keratinocyte cell line; assay: MTT cytotoxicity assay, HaCaT; format: cell-based; conditions: for IC50: Homo sapiens, HaCaT, MTT, 72 h; for cytotoxic effect on HaCaT cells: combination with LA40 and TRFi
Description: as §1, §2, §3

SW480 cells [4] = assay: Trypan blue exclusion viability assay, SW480; format: cell-based, human; conditions: 8 µM with LA (40 µM), 72 h, TB assay
Description: as §2
(§4) After a 72 h incubation with serial concentration of experimental compounds the cells were washed in PBS and harvested with trypsin. The viability was estimated by trypan blue exclusion assay using an automated cell counter (Countess Invitrogen). Experiments were performed in triplicate.

SW620 cells [5] = assay: Trypan blue exclusion viability assay, SW620; format: cell-based, human; conditions: 8 µM with LA (40 µM), 72 h, TB assay
Description: as §2, §4

SW620 cells [6] = assay: FITC Annexin V/PI flow cytometry apoptosis assay, SW620; format: cell-based, human; conditions: for cells in late apoptosis SW620: with LA 40 and TRFi addition
Description: (§5) The cells were cultured and harvested under the conditions mentioned in Cell Culture and Treatment and seeded in 6-well plates (2 × 10^5 cells per well). […] The apoptotic effect of compounds was measured using the Annexin V:FITC assay kit (Sigma Aldrich) in accordance with the protocols provided. After 72 h treatment both floating and adherent cells were harvested. The floating cells were collected by centrifugation at 700× g for 5 min at 4 °C. Adherent cells were first trypsinized and then collected by centrifugation at 700× g for 5 min at 4 °C. Both fractions were resuspended in Annexin V binding buffer, pooled and incubated with FITC Annexin V and PI for 15 min at room temperature in the dark and analyzed by flow cytometry (Becton Dickinson). A total of 10,000 events were collected. Annexin V:FITC positive and PI negative cells were recognized as early apoptosis and Annexin V:FITC and PI positive cells as late apoptosis or necrosis.

[7] = FITC Annexin V/PI flow cytometry apoptosis assay, HaCaT; format: cell-based, human; conditions: human, HaCaT cells; read-out: Q1 viable cells HaCaT
Description: as §5

HaCaT cells = assay: as above; format: cell-based, human; conditions: with LA 40 and TRFi addition
Description: as §5

SW480 cells [8] = assay: FITC Annexin V/PI flow cytometry apoptosis assay, SW480; format: cell-based; conditions: Homo sapiens, SW480, 72 h; read-out: Q1 viable cells SW480
Description: as §5

SW948 cells = tested on: SW948 cells; design: method as in ref 36 (Lu et al. 2018); conditions: 48 h, ref 36 (Lu et al. 2018), cited from earlier work
HCT-116 cells = tested on: HCT-116 cells; design: method as in ref 37 (Lu et al. 2014); conditions: 40 μM, 72 h; ref 37 (Lu et al. 2014); cited from earlier work
[9] = tested on: IL-6 secreted by SW480 cells; assay: Interleukin-6 ELISA in culture medium, SW480; format: cell-based, human; conditions: added to ART-LA or DHA-LA (20 and 40 µM), 72 h; all studied settings
Description: (§6) The level of interleukin-6 (IL-6) secreted by SW480 and SW620 cells was measured by commercial human IL-6 ELISA kits (Diaclon SAS, Besancon Cedex, France). […] The untreated cells were used as the control. The IL-6 level in a cell culture supernatant was determined by an enzyme-linked immunosorbent assay, according to the manufacturer’s protocol. The experiment was repeated three times.

[10] = tested on: IL-6 secreted by SW620 cells; assay: Interleukin-6 ELISA in culture medium, SW620; format: cell-based, human; conditions: added to ART-LA or DHA-LA (20 and 40 µM), 72 h; all studied settings except ART-LA20
Description: as §6

[11] = with TRFi 50 µM, read-out: IC50 HaCaT at the presence of TRFi
[12] = LA 20 or 40 µM, TRFi 50 µM where named in the label, read-out: IC50 HaCaT

Molecule	IC50 [1]	IC50 [2]	IC50 [3, 11]	IC50 [3, 12]	cytotoxic effect on HaCaT cells [3]	viability SW480 (SW480 cells [4])	viability SW620 (SW620 cells [5])	cells in late apoptosis SW620 (SW620 cells [6])	viability at 72 h, 2 µM [7]	late apoptosis HaCaT (HaCaT cells)	viability at 2 µM (SW480 cells [8])	viability at 2 µM (SW620 cells [6]; Homo sapiens, SW-620, 72 h, read-out: Q1 viable cells SW620)	viability SW948 (SW948 cells; 30 µM)	viability SW948 (SW948 cells; 50 µM)	viability HCT-116 (HCT-116 cells)	effect of TRFi addition on IL-6 concentration SW480 [9]	effect of TRFi addition on IL-6 concentration SW620 [10]
C[C@@H]1CC[C@H]2[C@@H](C)C(=O)O[C@@H]3O[C@@]4(C)CC[C@@H]1[C@]32OO4 [ART, Artemisinin]	39 ± 2.75 µM	42.8 ± 4.6 µM	187 µM	203 ± 16.2 µM	no cytotoxic effect	39 ± 2.8%	48 ± 2.8%	90%	80.8%	25.68%							
C[C@H]1[C@@H](O)O[C@@H]2O[C@@]3(C)CC[C@H]4[C@H](C)CC[C@@H]1[C@@]24OO3 [DHA, dihydroartemisinin]	11.4 ± 1.67 µM	11.9 ± 2.3 µM	129 µM	116 ± 5.5 µM	no cytotoxic effect	35 ± 1.8%	42 ± 2.1%	90%	73.7%	42.80%	60.7%	72.4%	45%	24%	40%		
COc1cccc2c1C(=O)c1c(O)c3c(c(O)c1C2=O)C[C@@](O)(C(=O)CO)C[C@@H]3O[C@H]1C[C@H](N)[C@H](O)[C@H](C)O1 [DOX, doxorubicin]	0.75 ± 0.1 µM			0.29 ± 0.1 µM													
TRFi: holotransferrin, iron-binding protein added to culture medium at 50 µM																increased IL-6 concentration	increased IL-6 concentration
